Patent US20060148646A1, “Controlled release fertilizers containing calcium sulfate and processes for making same” (priority 2004, published 2006)

What was measured:
[1] = test system: Hybrid “419” Bermudagrass; assay: Visual turf quality rating, golf course fairway (Example 18); type: in vivo
Protocol: (§1) The effect of nitrogen type was evaluated on the quality of hybrid bermudagrass grown under golf course conditions. Five fertilizer compositions were tested which included […] of the present invention, urea and Scotts Turf Builder. Nitrogen sources were applied individually at a rate of 1 lb N/1,000 ft^2 on Apr. 19, 2004. Field test plots were rated weekly for visual quality and scanned for digital image analysis.
(§2) Research was conducted on a fairway at Pleasant Valley Country Club in Little Rock, Arkansas. The hybrid “419” was bermudagrass was grown and was mowed at 0.5 inches height and clippings were not collected. Nitrogen sources were applied at a rate of 1 lb N/1,000 ft^2 on Apr. 19, 2004. Plots were 3 ft.×6 ft. Air temperatures on April 19th were 65-75° F. Turf quality ratings were made weekly by a single evaluator. Quality ratings considered turf growth and color. A rating of 6 was considered the minimum acceptable turf; a rating of 9 was not considered favorable from a management standpoint since growth was excessive and required frequent mowing. A visual rating of 8 would be considered excellent. Plots were also evaluated weekly using a digital image analysis. Digital images were taken with a Nikon CoolPix 880 camera with a shutter speed of 1/30 sec. and an aperture of f/2.8. Images were downloaded to a personal computer for subsequent analysis. Ratings were terminated when the nitrogen treated plots could not be visually separated from the control. Treatments consisted of 4 single plot replications. The experimental design was a completely randomized design.

[2] = test system: Hybrid “419” Bermudagrass; assay: Digital image analysis, measured color hue (Example 18); type: in vivo; parameters: unit not given here; conditions: mean of 4 repetitions; fertilizer applied Apr. 19, 2004
Protocol: as §1, §2

[3] = Controlled Release Soil Test (irrigated soil burial test); type: physicochemical
Description: To measure the relative solubilities of the products in soil, an irrigated soil burial test (“Controlled Release Soil Test”) was devised such that granules could be retrieved for measurement of their nitrogen content. The following is a description of the test.
Controlled Release Soil Test
Procedure for Controlled Release Soil Test
1. Screen the sample to obtain −6+7 Tyler mesh granules for the test.
2. Label a freezer container with the test description.
3. Place the freezer container on the 1200 g balance and tare out.
4. Place 300 g of potting soil with a 40% moisture content into the container and record the weight.
5. Over the soil place two (2) pieces of fiberglass mesh with 14 meshes to the inch and 1/16 inch openings.
6. Tare out the container with the soil and fiberglass mesh screens.
7. Spread 5 grams of −6+7 Tyler mesh granules over the screen in a single layer and record the weight.
8. Place a large square of fiberglass mesh over the granules, with a stainless steel screen cut to fit over it, so that the shape of the container has been mirrored.
9. Once this is shaped, tare out the container and add 150 g of soil and record the weight.
10. Repeat this process for each sample to be tested (in triplet if possible).
11. After all containers are completed, fill a mist spray bottle with de-ionized water and prime.
12. Tare out the weight of the primed mist bottle.
13. Mist 4 g of water into each container and immediately place the lid on container and seal.
14. After the fertilizer granules have been submerged in a humid soil environment for the allotted time (9 hours, 24 hours, and 3 days), the 150 g of soil is removed from the container.
15. Weigh to the nearest 0.0001 g in aluminum weigh pan and tare out.
16. Gently remove the two pieces of fiberglass mesh, which contains the remaining fertilizer granules.
17. Transfer the granules to the aluminum weigh pan and record the weight of the fertilizer granules.
18. Place the fertilizer granules in a laboratory oven to dry at low temperature (50° C.) for 13 hours.
19. Remove the dry sample from the oven, weigh to the nearest 0.0001 g and record weight.
20. Place the dry fertilizer sample into a 125 mL plastic sample bottle containing 20 g of de-ionized water.
21. Allow the sample to dissolve for 3 hours.
22. Place approximately 1 ml aliquot of the sample solution onto the sample stage of a refractometer (e.g., Abbe Refractometer).
23. Record the refractive index and temperature of the solution.
24. Calculate the percent urea retained from the original fertilizer sample.
To measure the slow or controlled release of the present compositions a Controlled Release Soil Test was employed, described as follows. […]

[4] = 1 lb N/1,000 ft^2 applied Apr. 19, 2004

With `NC(N)=O` [Urea, Carbamide] the “Visual Turf Quality Jun. 1, 2004” value [1, 4] was 7.7 cde, the “Visual Turf Quality Jun. 7, 2004” value [1, 4] was 7.7bcde and the “Visual Turf Quality Jun. 14, 2004” value [1, 4] was 7.6bcd. For the same compound, the “Visual Turf Quality Jun. 21, 2004” value [1, 4] was 7.5bc, the “Visual Turf Quality May 3, 2004” value [1, 4] was 7.5abcd and the “Visual Turf Quality May 9, 2004” value [1, 4] was 7.3bcd. The “Visual Turf Quality May 16, 2004” value [1, 4] was 7.5abcd, the “Visual Turf Quality May 24, 2004” value [1, 4] was 7.7bcdef and the “Visual Turf Quality Apr. 19, 2004” value ([1]; day of application, 1 lb N/1,000 ft^2, 6 = minimum acceptable, 8 excellent) was 6.5. The “Hue Jun. 1, 2004” value [2] was 31.589, the “Hue Jun. 7, 2004” value [2] was 27.101 and the “Hue Jun. 14, 2004” value [2] was 28.324. For the same compound, the “Hue Jun. 21, 2004” value [2] was 25.750, the “Hue May 3, 2004” value [2] was 29.085 and the “Hue May 10, 2004” value [2] was 30.702. The “Hue May 17, 2004” value [2] was 30.920, the “Hue May 24, 2004” value [2] was 29.943 and the “time to complete dissolution in the Controlled Release Soil Test” value [3] was ≤ 9 h.
With `N.N.O=S(=O)(O)O` [AS, (NH4)2SO4] the “Control Release Soil Test 9 HR (nitrogen retained)” value ([3]; ammonium sulfate based granulation products, 9 hours) was 56.8%, the “Control Release Soil Test 24 HR (nitrogen retained)” value ([3]; ammonium sulfate based granulation products, 24 hours) was 30.0% and the “Control Release Soil Test 3 DAY (nitrogen retained)” value ([3]; ammonium sulfate based granulation products, 3 days) was 0%.
